# Data as given in patent US8247170B2, “Detection of penicillin tolerance in Group B Streptococcus: single nucleotide polymorphisms in penicillin binding protein 4” (priority 2008, dated 2012).
# System: GBS clinical isolates and laboratory strains
# Test: Macrobroth penicillin tolerance assay
# Format: cell-based, Group B Streptococcus
# Settings: for 10xMIC, regrowth O.D.600: Penicillin G 10×MIC90 48 h; for 10xMIC, regrowth O.D.600 / 30xMIC, regrowth O.D.600 / 100xMIC, regrowth O.D.600 / 300xMIC, regrowth O.D.600: then 24 h drug-free; for 30xMIC, regrowth O.D.600: Penicillin G 30×MIC90 48 h; for 100xMIC, regrowth O.D.600: Penicillin G 100×MIC90 48 h; for 300xMIC, regrowth O.D.600: Penicillin G 300×MIC90 48 h
# Procedure: Using this modified penicillin tolerance assay, tolerant strains from the GBS clinical isolates can be more efficiently identified. In this macrobroth culture format, 25 ml THB broth GBS cultures (containing clinical isolates) were grown to an early exponential growth phase (˜0.2 OD600). Cell cultures (6 ml) were collected and divided into 4 culture tubes. […] Cell cultures were shaken at 150 rpm in order to maintain cells in suspension for proper growth. Subcultures (1/20 dilution) of cells were put into fresh THB containing […] Penase (i.e., 100 μl of Penase 10,000 U stock into 4 ml THB culture). Subcultures were allowed to grow for 24 hours at 37° C. Cell growth was monitored by OD (see Example 2).
# (I) Bacterial Strains and Culture Conditions. GBS strains A909 (serotype IA), 515 (serotype IA), NEM316 (serotype III), COHI (serotype III), 2603V/R (serotype V) and O90R (non-typable) were used in this study. E. coli Top10 cells were used for the recombination experiments. GBS was cultured in Todd Hewitt broth (THB) or Tryptic Soy 5% sheep blood (TS) media and E. coli in Luria-broth (LB) medium or agar. Antibiotics were used at the following concentrations: for GBS—penicillin G (MIC90 0.06 μg ml^−1), ampicillin (MIC90 0.12 μg ml^−1), vancomycin (MIC90 2 μg ml^−1), cefazolin (MIC90 1 μg ml^−1) and chloramphenicol (5 μg ml^−1); for E. coli—ampicillin (50 μg ml^−1) and chloramphenicol (5 μg ml^−1). Both GBS and E. coli cultures were grown at 37° C. (II) Tolerance Using the MBC:MIC Ratio Method. Three GBS laboratory strains (i.e., A909, NEM316, and O90R) were cultured overnight for 18 h at 37° C. in THB. Subcultures in THB were subsequently grown to exponential phase (OD600˜0.3; i.e. 5×10^5 cfu/ml) at 37° C. Cell cultures were then exposed to different concentrations of antibiotics (Penicillin G, Ampicillin, Cefozolin or Vancomycin). […] Cell cultures were dispersed every 18 h before OD600 was measured to determine the lowest concentration of antibiotic with 90% growth inhibition (MIC90). Antibiotic treated cells (8 μl) from each well were re-suspended into PBS (100 μl) and plated (54 μl) on TS agar plates and allowed to grow for an additional 24 h at 37° C. Cell count was performed to determine the lowest concentration of antibiotic with 90% killing of original inoculums (MBC90). (III) Penicillin Killing and Regrowth Tolerance Assay by Microbroth Dilution. Three GBS laboratory strains (i.e., A909, NEM316, and O90R) were cultured overnight for 18 h at 37° C. in THB. Subcultures in THB were subsequently grown to exponential phase (OD600˜0.3) at 37° C. Cell cultures were then exposed to different concentrations of Penicillin G (Sigma, St. Louis, Mo.). […] Cell cultures were dispersed. A 1:20 dilution of cells was re-plated into new wells containing fresh THB with 500 U Penase (to degrade residual penicillin). Cell cultures were allowed to re-grow for an additional 24 h at 37° C. before the OD600 was measured. (IV) Measuring Cell Viability by Determining ATP Concentration. GBS strains were cultured for 18 h at 37° C. in THB. These cells were inoculated into fresh THB and subsequently allowed to grow to exponential phase (OD600 0.25-0.3) at 37° C. One ml of each culture was centrifuged at 5,000×g for 4 min. The cell pellet was re-suspended in ATP-free water. Cellular ATP was extracted using trichloroacetic acid (TCA) (5%) for 2 min and subsequently neutralized with Tris-EDTA-0.1M NaOAc, pH 7.75 to 10×TCA volume. The initial (in.) cellular ATP concentration ([ATP]) was measured using the ENLITEN (Promega) luciferase based reaction kit. THB cultures were then treated with 100×MIC90 Penicillin G for 22 h. The experimental (exp.) cellular ATP was extracted and the concentration was measured as stated above. Based on the calculations ([ATP] exp.)/([ATP] in./O.D. in.), differences in viability were equated with the change in [ATP]. (V) Measuring Penicillin Induced Lysis. Three GBS laboratory strains (A909, NEM316, and O90R) were cultured for 18 h at 37° C. in THB. […]
# [1] = GBS laboratory strain 2603V/R (V)
# [2] = GBS laboratory strain A909 (Ia)
# [3] = GBS laboratory strain COH1 (III)
# [4] = GBS laboratory strain NEM316 (III)
# [5] = GBS laboratory strain O90R (NT)
compound,measurement,setting,value
CC1(C)S[C@@H]2[C@H](NC(=O)Cc3ccccc3)C(=O)N2[C@H]1C(=O)O [Penicillin G],% of clinical isolates PE-PT,51 clinical isolates,23.5%
same,% of clinical isolates PT (penicillin tolerant),51 clinical isolates,15.7%
same,% of clinical isolates S (penicillin susceptible),51 clinical isolates,60.8%
same,Phenotype,GBS laboratory strain 515 (Ia),Penicillin Tolerance (PT)
same,"10xMIC, regrowth O.D.600",GBS laboratory strain 515 (Ia),++ (“++” indicates an O.D.600 of 0.251 to 0.750)
same,"30xMIC, regrowth O.D.600",GBS laboratory strain 515 (Ia),+++ (“+++” indicates an O.D.600 of 0.751 to 1.500)
same,"100xMIC, regrowth O.D.600",GBS laboratory strain 515 (Ia),++ (“++” indicates an O.D.600 of 0.251 to 0.750)
same,"300xMIC, regrowth O.D.600",GBS laboratory strain 515 (Ia),++ (“++” indicates an O.D.600 of 0.251 to 0.750)
same,Phenotype,[1],Susceptible (S)
same,"10xMIC, regrowth O.D.600",[1],−− (“−−” indicates an O.D.600 of 0.001 to 0.099)
same,"30xMIC, regrowth O.D.600",[1],−− (“−−” indicates an O.D.600 of 0.001 to 0.099)
same,"100xMIC, regrowth O.D.600",[1],−− (“−−” indicates an O.D.600 of 0.001 to 0.099)
same,"300xMIC, regrowth O.D.600",[1],−− (“−−” indicates an O.D.600 of 0.001 to 0.099)
same,Phenotype,[2],Susceptible (S)
same,"10xMIC, regrowth O.D.600",[2],−− (“−−” indicates an O.D.600 of 0.001 to 0.099)
same,"30xMIC, regrowth O.D.600",[2],−− (“−−” indicates an O.D.600 of 0.001 to 0.099)
same,"100xMIC, regrowth O.D.600",[2],−− (“−−” indicates an O.D.600 of 0.001 to 0.099)
same,"300xMIC, regrowth O.D.600",[2],−− (“−−” indicates an O.D.600 of 0.001 to 0.099)
same,Phenotype,[3],Paradoxical Effect-Penicillin Tolerance
same,"10xMIC, regrowth O.D.600",[3],−− (“−−” indicates an O.D.600 of 0.001 to 0.099)
same,"30xMIC, regrowth O.D.600",[3],+++ (“+++” indicates an O.D.600 of 0.751 to 1.500)
same,"100xMIC, regrowth O.D.600",[3],+++ (“+++” indicates an O.D.600 of 0.751 to 1.500)
same,"300xMIC, regrowth O.D.600",[3],++ (“++” indicates an O.D.600 of 0.251 to 0.750)
same,Phenotype,[4],Paradoxical Effect-Penicillin Tolerance
same,"10xMIC, regrowth O.D.600",[4],+++ (“+++” indicates an O.D.600 of 0.751 to 1.500)
same,"30xMIC, regrowth O.D.600",[4],−− (“−−” indicates an O.D.600 of 0.001 to 0.099)
same,"100xMIC, regrowth O.D.600",[4],++ (“++” indicates an O.D.600 of 0.251 to 0.750)
same,"300xMIC, regrowth O.D.600",[4],+++ (“+++” indicates an O.D.600 of 0.751 to 1.500)
same,Phenotype,[5],Penicillin Tolerance (PT)
same,"10xMIC, regrowth O.D.600",[5],+++ (“+++” indicates an O.D.600 of 0.751 to 1.500)
same,"30xMIC, regrowth O.D.600",[5],+++ (“+++” indicates an O.D.600 of 0.751 to 1.500)
same,"100xMIC, regrowth O.D.600",[5],+++ (“+++” indicates an O.D.600 of 0.751 to 1.500)
same,"300xMIC, regrowth O.D.600",[5],+++ (“+++” indicates an O.D.600 of 0.751 to 1.500)
same,"10xMIC, regrowth O.D.600",GBS strain 12 (III),−− (“−−” indicates an O.D.600 of 0.001 to 0.099)
same,"30xMIC, regrowth O.D.600",GBS strain 12 (III),−− (“−−” indicates an O.D.600 of 0.001 to 0.099)
same,"100xMIC, regrowth O.D.600",GBS strain 12 (III),−− (“−−” indicates an O.D.600 of 0.001 to 0.099)
same,"300xMIC, regrowth O.D.600",GBS strain 12 (III),−− (“−−” indicates an O.D.600 of 0.001 to 0.099)
same,"10xMIC, regrowth O.D.600",GBS strain 18 (NT),−− (“−−” indicates an O.D.600 of 0.001 to 0.099)
same,"30xMIC, regrowth O.D.600",GBS strain 18 (NT),−− (“−−” indicates an O.D.600 of 0.001 to 0.099)
same,"100xMIC, regrowth O.D.600",GBS strain 18 (NT),−− (“−−” indicates an O.D.600 of 0.001 to 0.099)
same,"300xMIC, regrowth O.D.600",GBS strain 18 (NT),−− (“−−” indicates an O.D.600 of 0.001 to 0.099)
same,"10xMIC, regrowth O.D.600",GBS strain 21 (NT),−− (“−−” indicates an O.D.600 of 0.001 to 0.099)
same,"30xMIC, regrowth O.D.600",GBS strain 21 (NT),−− (“−−” indicates an O.D.600 of 0.001 to 0.099)
same,"100xMIC, regrowth O.D.600",GBS strain 21 (NT),−− (“−−” indicates an O.D.600 of 0.001 to 0.099)
same,"300xMIC, regrowth O.D.600",GBS strain 21 (NT),−− (“−−” indicates an O.D.600 of 0.001 to 0.099)
same,"10xMIC, regrowth O.D.600",GBS strain 22 (V),++ (“++” indicates an O.D.600 of 0.251 to 0.750)
same,"30xMIC, regrowth O.D.600",GBS strain 22 (V),++ (“++” indicates an O.D.600 of 0.251 to 0.750)
same,"100xMIC, regrowth O.D.600",GBS strain 22 (V),++ (“++” indicates an O.D.600 of 0.251 to 0.750)
same,"300xMIC, regrowth O.D.600",GBS strain 22 (V),++ (“++” indicates an O.D.600 of 0.251 to 0.750)
same,"10xMIC, regrowth O.D.600",GBS strain 26 (NT),−− (“−−” indicates an O.D.600 of 0.001 to 0.099)
same,"30xMIC, regrowth O.D.600",GBS strain 26 (NT),−− (“−−” indicates an O.D.600 of 0.001 to 0.099)
same,"100xMIC, regrowth O.D.600",GBS strain 26 (NT),−− (“−−” indicates an O.D.600 of 0.001 to 0.099)
same,"300xMIC, regrowth O.D.600",GBS strain 26 (NT),−− (“−−” indicates an O.D.600 of 0.001 to 0.099)
same,"10xMIC, regrowth O.D.600",GBS strain 46 (Ib),−− (“−−” indicates an O.D.600 of 0.001 to 0.099)
same,"30xMIC, regrowth O.D.600",GBS strain 46 (Ib),−− (“−−” indicates an O.D.600 of 0.001 to 0.099)
same,"100xMIC, regrowth O.D.600",GBS strain 46 (Ib),−− (“−−” indicates an O.D.600 of 0.001 to 0.099)
same,"300xMIC, regrowth O.D.600",GBS strain 46 (Ib),−− (“−−” indicates an O.D.600 of 0.001 to 0.099)
same,"10xMIC, regrowth O.D.600",GBS strain 47 (III),−− (“−−” indicates an O.D.600 of 0.001 to 0.099)
same,"30xMIC, regrowth O.D.600",GBS strain 47 (III),−− (“−−” indicates an O.D.600 of 0.001 to 0.099)
